Assay results published in patent US11584714B2 (priority 2018, dated 2023).
Structures can show the parent of a compound that is named as a salt. Where two headings read alike, the source gives them in different places.

Experiments:
Type in all cases: biochemical
MASP-2 (CCP1-CCP2-SP) = MASP-2 (CCP1-CCP2-SP) (Homo sapiens (Human), UniProt O00187); test: biochemical
mMASP-2 = mMASP-2 (Mus musculus (Mouse), UniProt Q91WP0); test: Enzymatic inhibition of mMASP-2
human α-thrombin = human α-thrombin (Homo sapiens (Human), UniProt P00734); test: Enzymatic assay for thrombin (Boc-VPR-AMC substrate)
[1] = selectivity for MASP-2 inhibition versus thrombin
[2] = MASP-2 inhibition versus thrombin

mMASP-2, sequence (Q91WP0 20-685): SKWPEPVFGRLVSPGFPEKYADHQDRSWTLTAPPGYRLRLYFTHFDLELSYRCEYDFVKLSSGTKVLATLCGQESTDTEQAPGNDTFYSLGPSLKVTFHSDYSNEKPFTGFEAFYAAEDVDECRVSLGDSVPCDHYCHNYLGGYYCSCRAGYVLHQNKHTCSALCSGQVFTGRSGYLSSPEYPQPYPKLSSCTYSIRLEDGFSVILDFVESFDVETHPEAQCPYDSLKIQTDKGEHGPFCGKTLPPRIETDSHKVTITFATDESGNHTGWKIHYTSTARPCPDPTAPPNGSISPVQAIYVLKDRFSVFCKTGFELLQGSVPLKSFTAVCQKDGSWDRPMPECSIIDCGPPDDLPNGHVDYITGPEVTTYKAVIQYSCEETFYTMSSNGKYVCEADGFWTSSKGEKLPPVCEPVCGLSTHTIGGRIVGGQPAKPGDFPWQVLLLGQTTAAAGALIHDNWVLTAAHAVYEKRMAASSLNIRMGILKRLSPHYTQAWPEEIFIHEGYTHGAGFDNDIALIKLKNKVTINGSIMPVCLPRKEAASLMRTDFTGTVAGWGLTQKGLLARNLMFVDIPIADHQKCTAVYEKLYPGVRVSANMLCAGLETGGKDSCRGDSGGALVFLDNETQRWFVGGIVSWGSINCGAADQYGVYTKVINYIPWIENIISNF
MASP-2 (CCP1-CCP2-SP), sequence (O00187 445-686): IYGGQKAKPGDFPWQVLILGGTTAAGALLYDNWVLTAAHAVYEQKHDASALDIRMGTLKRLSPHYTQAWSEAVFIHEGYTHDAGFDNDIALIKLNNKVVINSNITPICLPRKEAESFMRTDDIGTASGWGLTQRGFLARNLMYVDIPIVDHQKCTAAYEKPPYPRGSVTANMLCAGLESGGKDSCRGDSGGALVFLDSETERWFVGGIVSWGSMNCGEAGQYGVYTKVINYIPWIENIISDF

SMILES	Ki (MASP-2 (CCP1-CCP2-SP); read-out: MASP-2 Ki)	MASP-2 vs. thrombin selectivity (MASP-2 (CCP1-CCP2-SP); [1])	Ki (mMASP-2; read-out: mMASP-2 Ki)	Ki (human α-thrombin; Thrombin Ki (μM))	Ki (MASP-2 (CCP1-CCP2-SP))	Ki (human α-thrombin; read-out: Thrombin Ki)	MASP-2 vs. thrombin selectivity (MASP-2 (CCP1-CCP2-SP); [2])	Ki (mMASP-2)
Cc1nc(N)ccc1CNC(=O)[C@H](C)NC(=O)[C@H]1C[C@H](Cc2cccc(-c3ccccc3)c2)CN1 [compound 1406, (2R,4S)-4-([1,1′-Biphenyl]-3-ylmethyl)-N-((S)-1-(((6-amino-2-methylpyridin-3-yl)methyl)amino)-1-oxopropan-2-yl)pyrrolidine-2-carboxamide Dihydrochloric acid]	< 500 nM	**** (≥100-fold)	< 500 nM	2.5 to 10 µM				
CC(=O)Nc1ccc(Cl)cc1CNC(=O)[C@H](C)NC(=O)[C@H]1C[C@H](c2ccccc2)CN1 [compound 1269, (2R,4R)—N—((S)-1-((2-Acetamido-5-chlorobenzyl)amino)-1-oxopropan-2-yl)-4-phenylpyrrolidine-2-carboxamide]		** (≥5.0 to <25-fold)	10000 to 25000 nM		500 to 2500 nM	> 25 µM		
CCCCCN[C@H](CCc1ccccc1)C(=O)N[C@@H](C)C(=O)NCc1ccc(C(=N)N)cc1 [compound 1125]	< 500 nM		< 500 nM			< 0.5 µM	−− (less than 1.0-fold)	
CC(C)COC(=O)NC(=N)c1ccc(CNC(=O)[C@H](C)NC(=O)[C@H]2C[C@H](c3ccccc3)CN2)cc1 [compound 1293, Isobutyl (imino(4-(((S)-2-((2R,4R)-4-phenylpyrrolidine-2-carboxamido)propanamido)methyl)phenyl)methyl)carbamate]		* (≥1.0 to <5.0-fold)	2500 to 10000 nM		2500 to 10000 nM	> 25 µM		
COc1ccc(C[C@@H]2CN[C@@H](C(=O)N[C@@H](C)C(=O)NCc3ccc(N)nc3C)C2)cc1Cl [compound 1475, (2R,4S)—N—((S)-1-(((6-Amino-2-methylpyridin-3-yl)methyl)amino)-1-oxopropan-2-yl)-4-(3-chloro-4-methoxybenzyl)pyrrolidine-2-carboxamide Di-trifluoroacetate salt]	< 500 nM	**** (≥100-fold)	< 500 nM	10 to 25 µM				
Cc1cc(Cl)cc(CNC(=O)[C@H](C)NC(=O)[C@H]2C[C@H](Cc3ccccc3-c3ccc(Cl)s3)CN2)c1O [compound 1408, (2R,4S)—N—((S)-1-((5-Chloro-2-hydroxy-3-methylbenzyl)amino)-1-oxopropan-2-yl)-4-(2-(5-chlorothiophen-2-yl)benzyl)pyrrolidine-2-carboxamide Hydrochloride]	< 500 nM	** (≥5.0 to <25-fold)	2500 to 10000 nM	2.5 to 10 µM				
CCOC(=O)CCCN1CC[C@H](c2ccccc2)C[C@@H]1C(=O)N[C@@H](C)C(=O)NCc1ccc(N)nc1C [compound 1440, Ethyl 4-((2R,4S)-2-(((S)-1-(((6-amino-2-methylpyridin-3-yl)methyl)amino)-1-oxopropan-2-yl)carbamoyl)-4-phenylpiperidin-1-yl)butanoate]	< 500 nM		2500 to 10000 nM			> 25 µM		
COc1cc(CNC(=O)[C@H](C)NC(=O)[C@H](N)CCc2ccccc2)cnc1N [compound 1266, (R)-2-Amino-N—((S)-1-(((6-amino-5-methoxypyridin-3-yl)methyl)amino)-1-oxopropan-2-yl)-4-phenylbutanamide]		** (≥5.0 to <25-fold)	> 25000 nM		500 to 2500 nM	> 25 µM		
Cc1cc(C[C@@H]2CN[C@@H](C(=O)N[C@@H](C)C(=O)NCc3ccc(N)nc3C)C2)ccn1 [compound 1469, (2R,4S)—N—((S)-1-(((6-Amino-2-methylpyridin-3-yl)methyl)amino)-1-oxopropan-2-yl)-4-((2-methylpyridin-4-yl)methyl)pyrrolidine-2-carboxamide Dihydrochloride]	< 500 nM	**** (≥100-fold)	< 500 nM	2.5 to 10 µM				
Cc1nc(N)ccc1CNC(=O)[C@H](C)NC(=O)[C@H]1C[C@@H](c2ccccc2)CCN1CCCC(=O)O [compound 1439, 4-((2R,4S)-2-(((S)-1-(((6-Amino-2-methylpyridin-3-yl)methyl)amino)-1-oxopropan-2-yl)carbamoyl)-4-phenylpiperidin-1-yl)butanoic acid Trifluoroacetate salt]	< 500 nM		2500 to 10000 nM			> 25 µM		
C[C@H](NC(=O)[C@H]1C[C@H](Cc2ccc(F)c(Cl)c2)CN1)C(=O)NCc1cnc2c(c1)c(Cl)cn2C [compound 1474, (2R,4S)—N—((S)-1-(((3-Chloro-1-methyl-1H-pyrrolo[2,3-b]pyridin-5-yl)methyl)amino)-1-oxopropan-2-yl)-4-(3-chloro-4-fluorobenzyl)pyrrolidine-2-carboxamide Trifluoroacetate salt]	< 500 nM	**** (≥100-fold)	< 500 nM			> 25 µM		
Cc1ccccc1CC[C@@H](N)C(=O)N[C@@H](C)C(=O)NCc1ccc(C(=N)N)cc1 [compound 1045]	< 500 nM		< 500 nM			< 0.5 µM	** (5.0 to 25-fold)	
Cc1nc(N)ccc1CNC(=O)[C@H](C)NC(=O)[C@H]1C[C@@H](c2ccccc2)CCN1CCC(=O)O [compound 1411, 3-((2R,4S)-2-(((S)-1-(((6-Amino-2-methylpyridin-3-yl)methyl)amino)-1-oxopropan-2-yl)carbamoyl)-4-phenylpiperidin-1-yl)propanoic acid Trifluoroacetate salt]	< 500 nM		< 500 nM			> 25 µM		
C[C@H](NC(=O)[C@H]1C[C@H](Cc2ccc(F)c(Cl)c2)CN1)C(=O)NCc1cc2cnccc2[nH]1 [compound 1494, (2R,4S)—N—((S)-1-(((1H-Pyrrolo[3,2-c]pyridin-2-yl)methyl)amino)-1-oxopropan-2-yl)-4-(3-chloro-4-fluorobenzyl)pyrrolidine-2-carboxamide Di-trifluoroacetate salt]	< 500 nM	**** (≥100-fold)	< 500 nM	2.5 to 10 µM				
Cc1nc(N)ccc1CNC(=O)[C@H](C)N(C)C(=O)[C@H]1C[C@H](Cc2ccc(Br)cc2)CN1 [compound 1497, (2R,4S)—N—((S)-1-(((6-Amino-2-methylpyridin-3-yl)methyl)amino)-1-oxopropan-2-yl)-4-(4-bromobenzyl)-N-methylpyrrolidine-2-carboxamide Di-trifluoroacetate salt]	< 500 nM	** (≥5.0 to <25-fold)	2500 to 10000 nM	2.5 to 10 µM				
C[C@H](NC(=O)[C@H]1C[C@H](c2ccccc2)CN1)C(=O)NCc1cc2ccncc2[nH]1 [compound 1495, (2R,4R)—N—((S)-1-(((1H-Pyrrolo[2,3-c]pyridin-2-yl)methyl)amino)-1-oxopropan-2-yl)-4-phenylpyrrolidine-2-carboxamide Di-trifluoroacetate salt]	2500 to 10000 nM	** (≥5.0 to <25-fold)				> 25 µM		500 to 2500 nM
C[C@H](NC(=O)[C@@H](CCc1ccccc1)NCc1ccc(C(N)=O)cc1)C(=O)NCc1ccc(C(=N)N)cc1 [compound 1268, 4-((((R)-1-(((S)-1-((4-Carbamimidoylbenzyl)amino)-1-oxopropan-2-yl)amino)-1-oxo-4-phenylbutan-2-yl)amino)methyl)benzamide]	< 500 nM	* (≥1.0 to <5.0-fold)	< 500 nM			< 0.5 µM		
